Assay results published in article PMC4210147, “Sequence-Specific Dimerization of a Transmembrane Helix in Amphipol A8-35” (PLoS ONE, 2014).

Biological target: T1, human GpA TM domain (Homo sapiens, UniProt P02724)
T1 construct: purchased Peptide Specialty Laboratories, Heidelberg, Germany; host or cells: chemical synthesis (custom peptide)
T1 sequence (P02724 88-120 limits assumed) 1: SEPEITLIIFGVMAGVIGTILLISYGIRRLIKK
T1 sequence (P02724 88-120 limits assumed) 2: T1 sequence (P02724 88-120 limits assumed) 1
Test: Steady-state FRET, GpA TM helix dimerization in A8-35
Format: binding
Conditions: n = 3; for dimer fraction (in words): pH 7.4, 25°C
Source text: Peptides corresponding to residues 69–101 of the human GpA TM domain ([…]) were custom-synthesized and labeled at the N-terminus with either the donor or the acceptor dyes fluorescein (FL) and 5-6-carboxyrhodamine (TAMRA), respectively (Peptide Specialty Laboratories, Heidelberg, Germany). The purity of the labelled peptides was confirmed by high-performance liquid chromatography (HPLC) and mass spectrometry. Based on this, the labeled peptides used in this study were>95% pure. Peptides were dissolved in 2,2,2-trifluoroethanol purchased from Sigma-Aldrich (Munich, Germany). APol A8-35 was purchased from Affymetrix (Santa Clara, USA) and sodium dodecyl sulfate (SDS) from Roth (Karlsruhe, Germany). N-dodecyl-β-D-maltopyranoside (DDM) was obtained from Sigma-Aldrich (Munich, Germany).
For Förster resonance energy transfer (FRET) measurements, equal concentrations of FL- and TAMRA-labeled GpA TM domains were used. Concentrations of the peptide stock solutions were determined from absorbance measurements on a Perkin Elmer Lambda 35 UV/VIS spectrophotometer. In all experiments, we used 0.25 µM for each of the two labeled GpA peptides. Peptides dissolved in TFE and A8-35 dissolved in ethanol were mixed, and organic solvents were removed under a gentle stream of nitrogen gas. Residual solvent traces were removed by vacuum desiccation overnight. The dried peptide/polymer film was then hydrated in 10 mM HEPES buffer (pH 7.4) containing 150 mM NaCl.
After at least 2 h of incubation at 37°C and 10 min of centrifugation at 16,000 g, steady-state fluorescence measurements were performed with the supernatant at 25°C on a Horiba Fluoromax 4 system with both excitation and emission slits at 3 nm. The excitation wavelength was set at 439 nm, and emission spectra were recorded from 480 to 650 nm. For FRET measurements with SDS, several concentrations of SDS, both below and above the CMC determined for the given buffer conditions, were used, and hydrated samples were incubated overnight.
Energy transfer E was calculated using the donor fluorescence intensities at 525 nm in presence and absence of acceptor according to [drawing 1] (1)
FD is the fluorescence intensity of the donor sample, and FDA is the fluorescence intensity of the sample containing donor and acceptor GpA TM domains at equal concentrations. The energy transfer of sequence-specific TM helix dimerization, ED, can be expressed as: [drawing 2] (2) where f D is the fraction of dimeric TM helices, P D is the probability of donor quenching when the peptides form a dimer, and E R is the energy transfer in the dimer.
The probability P D of donor quenching depends on the molar ratio of the acceptor peptides [drawing 3] , where [a] and [d] are the concentrations of acceptor and donor peptides, respectively. If the distance of the fluorophores in the dimer is much smaller than the Förster radius, as is the case here, ER can be taken as unity.
The fraction of dimers can be written as [drawing 4] , where [D] is the concentration of dimeric peptides and [T] the total peptide concentration.
The dissociation constant, K D, is given by [drawing 6] (4) where the monomer concentration is [drawing 7] .

## CC[C@H](C)[C@H](NC(=O)CNC(=O)[C@H](Cc1ccc(O)cc1)NC(=O)[C@H](CO)NC(=O)[C@@H](NC(=O)[C@H](CC(C)C)NC(=O)[C@H](CC(C)C)NC(=O)[C@@H](NC(=O)[C@@H](NC(=O)CNC(=O)[C@@H](NC(=O)[C@@H](NC(=O)CNC(=O)[C@H](C)NC(=O)[C@H](CCSC)NC(=O)[C@@H](NC(=O)CNC(=O)[C@H](Cc1ccccc1)NC(=O)[C@@H](NC(=O)[C@@H](NC(=O)[C@H](CC(C)C)NC(=O)[C@@H](NC(=O)[C@@H](NC(=O)[C@H](CCC(=O)O)NC(=O)[C@@H]1CCCN1C(=O)[C@H](CCC(=O)O)NC(=O)[C@@H](N)CO)[C@@H](C)CC)[C@@H](C)O)[C@@H](C)CC)[C@@H](C)CC)C(C)C)C(C)C)[C@@H](C)CC)[C@@H](C)O)[C@@H](C)CC)[C@@H](C)CC)C(=O)N[C@@H](CCCNC(=N)N)C(=O)N[C@@H](CCCNC(=N)N)C(=O)N[C@@H](CC(C)C)C(=O)N[C@H](C(=O)N[C@@H](CCCCN)C(=O)N[C@@H](CCCCN)C(=O)O)[C@@H](C)CC [GpA TM domain]
25 µM A8-35, FL- and TAMRA-labeled GpA 0.25 µM each, 10 mM HEPES pH 7.4, 150 mM NaCl, incubated at least 2 h at 37°C, measured at 25°C
  dimer fraction: about 0.65
A8-35 range 5 to 75 µM, in contrast to detergents
  GpA dimer dissociation at relatively higher A8-35 concentrations: do not seem to fully dissociate the GpA dimer
Above 25 µM A8-35 (to 75 µM), FL- and TAMRA-labeled GpA 0.25 µM each
  dimer fraction (in words): decreased only faintly with increasing polymer concentrations
Low A8-35 concentrations (range 5 to 75 µM), FL- and TAMRA-labeled GpA 0.25 µM each
  dimer fraction (in words): Almost all peptides were dimeric
Tested A8-35 range 5 to 75 µM, total labeled peptide 0.5 µM, 10 mM HEPES pH 7.4, 150 mM NaCl, 25°C, read-out: apparent dissociation constant K_D of GpA TM dimer
  Kd: < 300 nM
